How the values were obtained:
XMD8-85 + Trametinib = compound: CN1CCN(CC1)C2=CC(=C(C=C2)NC3=NC=C4C(=N3)N(C5=CC=CC=C5C(=O)N4C)C)OC [XMD8-85] + CC(=O)Nc1cccc(-n2c(=O)n(C3CC3)c(=O)c3c(Nc4ccc(I)cc4F)n(C)c(=O)c(C)c32)c1 [Trametinib] (partner 0.02 µM); experiment: relative viability (nuclei count vs DMSO), 5 days (fraction); higher = more cells survive
How it was run: (§1)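 Dosing by pin tool came one day after lung cancer cell lines were seeded in 1536-well plates, using either one drug or a fixed anchor-drug dose plus five library-drug doses (not always all listed) in √10 steps. After 5 days, nuclei were counted on 4× images. Relative viability is treated-well nuclei count divided by vehicle-well nuclei count, and values are medians of duplicate plates.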

4EGI-1 + Dasatinib = compound: O=C(O)C(Cc1ccccc1[N+](=O)[O-])=NNc1nc(-c2ccc(Cl)c(Cl)c2)cs1 (mixture of isomers) [4EGI-1] + Cc1nc(Nc2ncc(C(=O)Nc3c(C)cccc3Cl)s2)cc(N2CCN(CCO)CC2)n1 [Dasatinib] (partner 0.075 µM); experiment: as above
How it was run: as §1

| Cell Line | relative viability (XMD8-85 + Trametinib; first compound 0.08 µM) | relative viability (XMD8-85 + Trametinib; first compound 0.253 µM) | relative viability (XMD8-85 + Trametinib; first compound 0.8 µM) | relative viability (XMD8-85 + Trametinib; first compound 2.53 µM) | relative viability (XMD8-85 + Trametinib; first compound 8 µM) | relative viability (4EGI-1 + Dasatinib; first compound 0.5 µM) | relative viability (4EGI-1 + Dasatinib; first compound 1.581 µM) | relative viability (4EGI-1 + Dasatinib; first compound 5 µM) | relative viability (4EGI-1 + Dasatinib; first compound 15.81 µM) | relative viability (4EGI-1 + Dasatinib; first compound 50 µM) |
| --- | --- | --- | --- | --- | --- | --- | --- | --- | --- | --- |
| HCC-366 | 0.33 | 0.35 | 0.467 | 0.324 | 0.307 | 0.772 | 0.587 | 0.629 | 0.67 | 0.308 |
| NCI-H520 | – | 0.728 | 0.689 | 0.604 | 0.496 | 0.204 | 0.276 | 0.187 | 0.215 | 0.153 |
| NCI-H522 | 0.821 | 0.653 | 0.739 | 0.698 | 0.537 | 1.02 | 0.735 | 0.858 | 0.893 | 0.556 |
| NCI-H2342 | 0.747 | 0.807 | 0.859 | 0.922 | 0.991 | 0.299 | 0.3 | 0.292 | 0.292 | 0.257 |
| HCC-44 | 1.11 | 1.12 | 1.12 | 1.04 | 1.01 | – | – | – | – | – |
| BEN | 0.866 | 1 | 0.983 | 0.829 | 0.681 | 0.328 | 0.302 | 0.329 | 0.282 | 0.233 |
| HARA | 0.9 | 0.78 | 0.578 | 0.21 | 0.33 | 0.273 | 0.319 | 0.283 | 0.206 | 0.218 |
| NCI-H2085 | 0.651 | 0.469 | 0.427 | 0.514 | 0.355 | 0.318 | 0.229 | 0.272 | 0.216 | 0.271 |
| NCI-H838 | 0.529 | 0.48 | 0.516 | 0.617 | 0.334 | 0.322 | – | 0.245 | 0.267 | 0.19 |
| NCI-H647 | 0.478 | 0.486 | 0.485 | 0.465 | 0.28 | 0.149 | – | 0.186 | 0.167 | 0.0838 |
| NCI-H1651 | 0.842 | 0.886 | 0.739 | 0.76 | 0.716 | 0.36 | 0.377 | 0.44 | 0.346 | 0.174 |
| NCI-H322M | 0.534 | 0.5 | 0.44 | 0.418 | 0.455 | 0.23 | – | 0.243 | 0.237 | 0.256 |
| LU99A | 0.51 | 0.538 | 0.55 | 0.53 | 0.433 | 0.615 | 0.405 | 0.54 | 0.449 | 0.235 |
| PC-14 | 0.733 | 0.703 | 0.756 | 0.6 | 0.306 | 0.342 | – | 0.297 | 0.0363 | 0.0488 |
| SK-MES-1 | 0.57 | 0.616 | 0.49 | 0.428 | 0.304 | 0.479 | 0.312 | 0.34 | 0.356 | 0.198 |
| NCI-H358 | 0.111 | 0.139 | 0.128 | 0.11 | 0.132 | 0.151 | 0.16 | 0.183 | 0.139 | 0.0975 |
| NCI-H2347 | 0.275 | 0.312 | 0.283 | 0.298 | 0.286 | 0.339 | – | 0.318 | 0.305 | 0.336 |

| Cell Line | relative viability (XMD8-85 + Trametinib; first compound 0.08 µM) | relative viability (XMD8-85 + Trametinib; first compound 0.253 µM) | relative viability (XMD8-85 + Trametinib; first compound 0.8 µM) | relative viability (XMD8-85 + Trametinib; first compound 2.53 µM) | relative viability (XMD8-85 + Trametinib; first compound 8 µM) | relative viability (4EGI-1 + Dasatinib; first compound 0.5 µM) | relative viability (4EGI-1 + Dasatinib; first compound 1.581 µM) | relative viability (4EGI-1 + Dasatinib; first compound 5 µM) | relative viability (4EGI-1 + Dasatinib; first compound 15.81 µM) | relative viability (4EGI-1 + Dasatinib; first compound 50 µM) |
| --- | --- | --- | --- | --- | --- | --- | --- | --- | --- | --- |
| NCI-H1395 | 0.832 | 1.08 | 0.995 | 1.04 | 0.829 | 0.423 | 0.471 | 0.436 | 0.442 | 0.32 |
| SK-LU-1 | 0.425 | 0.469 | 0.53 | 0.508 | 0.367 | 0.189 | 0.186 | 0.178 | 0.198 | 0.185 |
| NCI-H650 | 0.904 | 1 | 0.977 | 0.94 | 0.601 | 0.5 | – | 0.463 | 0.459 | 0.297 |
| NCI-H1437 | 0.547 | 0.487 | 0.491 | 0.594 | 0.308 | 0.427 | 0.409 | 0.421 | 0.232 | 0.103 |
| NCI-H596 | 0.866 | 0.72 | 0.675 | 0.769 | 0.696 | 0.714 | 0.566 | 0.584 | 0.582 | 0.491 |
| NCI-H661 | 0.548 | 0.536 | 0.583 | 0.653 | 0.43 | 1.2 | 0.831 | 0.785 | 0.517 | 0.262 |
| PC-3 [JPC-3] | 0.672 | 0.83 | 0.75 | 0.717 | 0.599 | 1.03 | 0.978 | 0.893 | – | 0.937 |
| RERF-LC-KJ | 0.887 | 0.853 | 0.873 | 0.904 | 0.727 | 0.999 | – | 0.641 | 0.496 | 0.266 |
| NCI-H2170 | 0.848 | 0.845 | 1.03 | 1 | 0.702 | 0.676 | 0.504 | 0.628 | 0.473 | 0.173 |
| NCI-H1993 | 0.484 | 0.436 | 0.537 | 0.494 | 0.381 | 0.595 | 0.616 | 0.543 | 0.467 | 0.441 |
| A-427 | 0.755 | 0.731 | 0.697 | 0.714 | 0.631 | 0.797 | 0.513 | 0.527 | 0.46 | 0.159 |
| NCI-H1650 | 0.629 | 0.539 | 0.784 | 0.426 | 0.36 | 0.307 | – | 0.364 | 0.219 | 0.136 |
| ABC-1 | – | – | – | – | – | 0.585 | 0.501 | 0.586 | 0.38 | 0.192 |
| HCC-78 | 1.14 | 1.02 | 0.735 | 0.536 | 0.402 | 0.41 | – | 0.383 | 0.34 | 0.357 |
| CAL-12T | 0.32 | 0.404 | – | 0.302 | 0.379 | 0.504 | 0.206 | 0.449 | 0.297 | 0.0969 |
| NCI-H3122 | 0.251 | 0.223 | 0.271 | 0.303 | 0.283 | 0.967 | 0.739 | 0.881 | 0.841 | 0.239 |
| LOU-NH91 | 0.792 | 0.807 | 0.755 | 0.785 | 0.621 | 0.569 | – | 0.505 | 0.378 | 0.458 |

From the supplement of paper PMC10307832
